{"source": "patent US9713598B2", "about": "“Treatment of insulin resistance associated with prolonged physical inactivity” (ABBOTT LABORATORIES, priority 2013, dated 2017)", "assay_type_in_all_cases": "in vivo", "key": {"[1]": {"test_system": "Insulin-like Growth Factor-Binding Protein 2 (IGFBP-2)", "test": "10-day bed rest study in healthy elderly subjects: circulating IGFBP-2 (RBM Human Discovery map, serum)", "text": "(§1) The following inclusion criteria were verified at screening: male or female ≧60 to ≦79 years of age; body mass index (BMI) ≧20 but ≦35; ambulatory with a Short Performance Physical Battery (SPPB) score of ≧9 (fully functional with no mobility limitations); compliance with prescribed activity level. Exclusion criteria ruled out subjects who had undergone recent major surgery, had active malignancy (exception basal or squamous cell skin carcinoma or carcinoma in situ of the uterine cervix); history of Deep Vein Thrombosis (DVT) or other hypercoagulation disorders; refractory anemia; history of diabetes or fasting blood glucose value >126 mg/dL; presence of partial or full artificial limb; kidney disease or serum creatinine >1.4 mg/dL; evidence of cardiovascular disease assessed during resting or exercise EKG; untreated hypothyroidism; liver disease; chronic or acute GI disease; uncontrolled severe diarrhea, nausea or vomiting; were actively pursuing weight loss; were enrolled in other clinical trials; could not refrain from smoking over the bed rest study period or could not discontinue anticoagulant therapy over bed rest period. Potential subjects were also excluded if they were taking any medications known to affect protein metabolism (e.g., progestational agents, steroids, growth hormone, dronabinol, marijuana, HMB, free amino acid supplements, dietary supplements to aid weight loss).\n(§2) The 24 healthy subjects initially involved in the study were randomized into two groups. Subjects in the treatment group received two β-hydroxy-β-methylbutyrate (HMB) sachets containing 1.5 grams Ca-HMB (TSI, Salt Lake City, Utah), 4 grams maltodextrin and 200 mg Calcium with additional sweetener and flavoring groups. Subjects in the control group received two control sachets that were identical to the HMB sachets with the exclusion Ca-HMB. This study was a double-blinded study. Neither the investigators nor the subjects were informed of the identity of any of the study products during the clinical portion of the study. Subjects were instructed to consume twice daily by mixing each sachet into a non-caloric, non-caffeinated, non-carbonated, non-milk-based beverage of their choice. Treatment with HMB or Control was initiated 5 days prior to bed rest and was continued until the end of the rehabilitation period.\n(§3) For diet stabilization over the pre-bed rest and bed rest period, subjects were fed a metabolically controlled diet providing the RDA for protein intake (0.8 g protein/kg body weight per day). Total calorie needs were estimated using the Harris-Benedict equation for resting energy expenditure according to the following equation: For women=[655+(9.56×body weight in kg)+(1.85×height in cm)−(4.68×age in years)]×AF, or, For men=[66+(13.7×body weight in kg)+(5×height in cm)−([…]]×AF, where AF=activity factor of 1.6 for the ambulatory and 1.35 for the bed rest periods. Given the total calorie and protein intakes, the remainder of the diet was manipulated to keep the non-protein calories at about 60% from carbohydrates and 40% from fat. Water was provided ad libitum.\n(§4) After a diet stabilization of 5 days (ambulatory period), subjects remained in bed continuously for 10 days. While confined to bed rest, subjects were allowed to use the bedside commode for urination or were taken in a wheelchair for toileting. […] Subjects were constantly monitored by nursing staff and received a daily physical examination by the study physician. […]"}, "[2]": {"test_system": "C-peptide", "test": "10-day bed rest study in healthy elderly subjects: circulating C-peptide (RBM Human Discovery map, serum)", "text": "as §1, §2, §3, §4"}, "[3]": {"test_system": "Leptin", "test": "10-day bed rest study in healthy elderly subjects: circulating Leptin (RBM Human Discovery map, serum)", "text": "as §1, §2\nFor diet stabilization over the pre-bed rest and bed rest period, subjects were fed a metabolically controlled diet providing the RDA for protein intake (0.8 g protein/kg body weight per day). […]\nAfter a diet stabilization of 5 days (ambulatory period), subjects remained in bed continuously for 10 days. […] Subjects were constantly monitored by nursing staff and received a daily physical examination by the study physician. […]"}, "[4]": {"conditions": "HMB Treatment (n = 10), end of 10 days of bed rest"}, "[5]": {"conditions": "HMB Treatment (n = 10), two sachets of 1.5 g Ca-HMB daily, started 5 days prior to bed rest, fasted blood, Day 1 of bed rest"}}, "note": "Where “and” joins values, the source holds several entries; their conditions need not be identical. Equal values may be shown once.", "data": [{"smiles": "CC(C)(O)CC(=O)O", "note": "[HMB, β-hydroxy-β-methylbutyric acid]", "values": [{"measurement": "percent change in blood levels of IGFBP-2", "setting": "[1]; 10 HMB treated subjects, after 10 days of bed rest, control −24.56%", "result": "−15.63", "unit": "%"}, {"measurement": "IGFBP-2, Post-bed rest Mean", "setting": "[1]; [4]", "result": 106.97, "unit": "ng/mL"}, {"measurement": "IGFBP-2, Change", "setting": "[1]; HMB Treatment (n = 10), pre- to post-bed rest, 10 days, control change −30.54 ± 13.64", "result": "-20.89 ng/mL and -20.89 ± 6.84 ng/mL"}, {"measurement": "IGFBP-2, Pre-bed rest Mean", "setting": "[1]; [5]", "result": 127.86, "unit": "ng/mL"}, {"measurement": "effect on bed-rest change in blood levels of IGFBP-2 versus control subjects", "setting": "[1]; prolonged bed rest, 10 days", "result": "reduces or attenuates the decrease in blood levels of IGFBP-2"}, {"measurement": "percent increase in blood levels of C-peptide", "setting": "[2]; 10 HMB treated subjects, after 10 days of bed rest, control 43.0%", "result": 29.59, "unit": "%"}, {"measurement": "C-peptide, Post-bed rest Mean", "setting": "[2]; [4]", "result": 1.69, "unit": "ng/mL"}, {"measurement": "C-peptide, Change", "setting": "[2]; HMB Treatment (n = 10), pre- to post-bed rest, 10 days, control change 0.54 ± 0.22", "result": "0.28 ng/mL and 0.28 ± 0.08 ng/mL"}, {"measurement": "C-peptide, Pre-bed rest Mean", "setting": "[2]; [5]", "result": 1.41, "unit": "ng/mL"}, {"measurement": "effect on bed-rest change in blood levels of C-peptide versus untreated control subjects", "setting": "[2]; prolonged bed rest, 10 days", "result": "reduces or attenuates the increase in blood levels of C-peptide"}, {"measurement": "Leptin, Post-bed rest Mean", "setting": "[3]; [4]", "result": 19.31, "unit": "ng/mL"}, {"measurement": "Leptin, Change", "setting": "[3]; HMB Treatment (n = 10), pre- to post-bed rest, 10 days, control change 5.06 ± 1.88", "result": "4.11 ng/mL and 4.11 ± 1.89 ng/mL"}, {"measurement": "Leptin, Pre-bed rest Mean", "setting": "[3]; [5]", "result": 15.20, "unit": "ng/mL"}, {"measurement": "effect on bed-rest change in blood levels of Leptin versus untreated control subjects", "setting": "[3]; prolonged bed rest, 10 days", "result": "reduces or attenuates the increase in blood levels of Leptin"}]}]}
